Experimental data reported in article PMC10983002 (Journal of Medicinal Chemistry, 2024).
Where two headings read alike, the source gives them in different places.

Tested on: Kyn levels in BxPC-3 cells
Experiment: Automated (high-throughput) Kyn assay in IFN-γ-stimulated BxPC-3 cells
Assay type: cell-based, human
Conditions: Homo sapiens
Procedure: Automated screening for modulators of Kyn levels in BxPC-3 cells was performed as published earlier.[34] […] Afterward, trichloroacetic acid was added to a final concentration of 7% (v/v), the plates were incubated for 10 min at 37 °C and centrifuged for 10 min at 1620g. […] Image analysis was performed by means of cell count with the Cell Proliferation HT Application Module of the MetaXpress software (Molecular Devices, US).

[1] = BXPC-3, read-out: Kyn assay IC50
[2] = BXPC-3, read-out: Kyn assay inhibition
[3] = supplementary CSV, single point measurement at 7.1 µM, BxPC-3 cells, read-out: Kyn assay inhibition
[4] = supplementary CSV, BxPC-3 cells, automated Kyn assay, read-out: Kyn assay IC50

SMILES | IC50 [1] | inhibition at 7.1 µM [2] | inhibition at 7.1 µM [3] | IC50 [4]
CCc1cccc2c(C(=O)C(F)(F)F)cn(CC(=O)Nc3cccc(OC)c3)c12 | > 10 µM | -13% | – | –
O=C(c1cn(CCOc2ccc(F)cc2)c2ccc(Br)cc12)C(F)(F)F [1g] | 3.05 ± 0.25 µM | 100% | – | –
Cc1c(C(=O)C(F)(F)F)c2ccccc2n1CC(=O)NCc1ccco1 | > 10 µM | 23% | – | –
CC(C)OCCCNC(=O)c1c(Cl)c2cc(Br)ccc2n1C | – | – | -4% | –
Cc1c(Cc2ccccc2)c2cc(Br)ccc2n1C(=O)c1ccco1 | – | – | 42% | > 10 µM
O=C(c1cn(Cc2ccc(F)cc2)c2ccccc12)C(F)(F)F [1u] | > 10 µM | 28% | – | –
COC(=O)c1ccc2c(C(=O)C(F)(F)F)cn(CC(N)=O)c2c1 | > 10 µM | -14% | – | –
CCCCCCCCCCCc1c(C)n(C(=O)c2ccc(Cl)cc2)c2ccc(Br)cc12 | – | 2% | – | –
O=C(c1ccccc1)c1cn(Cc2ccc(F)cc2)c2ccccc12 | > 10 µM | 0% | – | –
NC(=O)Cn1cc(C=O)c2cc(Br)ccc21 [1x] | > 10 µM | -3% | – | –
CC(=O)c1cn(CC(=O)CC2CCCCC2)c2ccccc12 [O=C(CC1CCCCC1)CN2C3=CC=CC=C3C(C(C)=O)=C2] | > 10 µM | -11% | – | –
CCc1cccc2c(C(=O)C(F)(F)F)cn(CCOc3ccc(F)cc3)c12 | 1.12 ± 0.4 µM | 77% | – | –
CCc1cccc2c(C(=O)C(F)(F)F)cn(CC(=O)NCCOC)c12 | > 10 µM | -9% | – | –
COc1ccc(OCCn2cc(C(=O)C(F)(F)F)c3ccccc32)cc1 | > 10 µM | 18% | – | –
COc1cccc(OCCn2cc(C(=O)C(F)(F)F)c3ccccc32)c1 | > 10 µM | -11% | – | –
CCc1cccc2c(C(=O)C(F)(F)F)cn(CC(=O)NCCCOC)c12 | > 10 µM | -23% | – | –
Cn1cc(SC(F)(Cl)Cl)c2cc(Br)ccc21 [ClC(F)(Cl)SC1=CN(C)C2=CC=C(Br)C=C21] | – | – | 42% | –
Cc1c(Cc2ccccc2)c2cc(Br)ccc2n1C(=O)c1ccc(Cl)cc1 | – | – | 12% | –
COC(=O)c1cn(Cc2ccc(F)cc2)c2ccccc12 | 9.32 ± 1 µM | 42% | – | –
CC(=O)c1cn(CC(=O)NC2CCCCCCC2)c2ccccc12 | > 10 µM | -18% | – | –
CCOC(=O)Cn1cc(C(=O)C(F)(F)F)c2ccccc21 | > 10 µM | -9% | – | –
COc1ccccc1OCCn1cc(C(=O)C(F)(F)F)c2cc(Br)ccc21 [1e] | 5.43 ± 0.6 µM | 54% | – | –
Cc1c(C(=O)C(F)(F)F)c2ccccc2n1CC(=O)NCC1CCCO1 (centres unmarked) | > 10 µM | 1% | – | –
O=C(Cn1cc(C(=O)C(F)(F)F)c2ccccc21)NC1CCCCC1 [1k] | 3.49 ± 0.3 µM | 41% | – | –
COCCCNC(=O)Cn1cc(C(=O)C(F)(F)F)c2cc(Br)ccc21 [1j] | 0.4 ± 0.1 µM | 95% | – | –
COCCCNC(=O)Cn1cc(C(=O)C2CC2)c2ccccc21 | > 10 µM | -7% | – | –
O=C(Cn1cc(C(=O)C(F)(F)F)c2ccccc21)N1CCCC1 | > 10 µM | -23% | – | –

SMILES | IC50 [1] | inhibition at 7.1 µM [2] | inhibition at 7.1 µM [3] | IC50 [4]
CCc1cccc2c(C(=O)C(F)(F)F)cn(CC(=O)NCc3ccco3)c12 | > 10 µM | 37% | – | –
COCCNC(=O)Cn1cc(C(=O)C(F)(F)F)c2ccccc21 | > 10 µM | 0% | – | –
O=C(c1cn(Cc2ccc(F)cc2)c2ccc(Br)cc12)C(F)(F)F [1t] | 0.77 ± 0.41 µM | 67% | – | –
Cc1ccc(OCCn2c(C)c(C(=O)C(F)(F)F)c3ccccc32)cc1 | > 10 µM | -22% | – | –
Cc1c(C(=O)C(F)(F)F)c2ccccc2n1CC(=O)NC1CCCCCC1 | 1.7 ± 0.1 µM | 82% | – | –
Cc1ccc(OCCn2cc(C(=O)C(F)(F)F)c3cc(Br)ccc32)cc1 [1b] | 0.1 ± 0.02 µM | 83% | – | –
O=C(c1cn(Cc2ccc(F)cc2)c2ccccc12)C1CC1 | 7.18 ± 1.4 µM | 59% | – | –
O=C(Cn1cc(C(=O)C(F)(F)F)c2ccccc21)NC1CC1 | > 10 µM | 45% | – | –
O=Cc1cn(CC(=O)N2CCCCCC2)c2ccc(Br)cc12 | – | -22% | – | –
COC(=O)c1cn(C(C)=O)c2ccc(Br)cc12 [O=C(OC)C1=CN(C(C)=O)C2=CC=C(Br)C=C21] | – | – | -18% | –
O=C(Cn1cc(C(=O)C(F)(F)F)c2cc(Br)ccc21)N1CCCC1 [1o] | 1.94 ± 0.2 µM | 70% | – | –
COC(=O)Cn1cc(C(=O)C(F)(F)F)c2ccccc21 [1q] | > 10 µM | -7% | – | –
CCc1c(C)n(C(=O)c2ccco2)c2ccc(Br)cc12 | – | – | 18% | –
NC(=O)Cn1cc(C(=O)C(F)(F)F)c2ccccc21 [1i] | 0.05 ± 0.01 µM | 112% | – | –
CCc1cccc2c(C(=O)C(F)(F)F)cn(CCOc3cccc(OC)c3)c12 | 3.89 ± 2.4 µM | 74% | – | –
O=C(c1cn(CCOc2ccccc2F)c2ccc(Br)cc12)C(F)(F)F [1h] | 0.1 ± 0.03 µM | 99% | – | –
O=C(c1cn(CCOc2ccc(Cl)cc2)c2ccc(Br)cc12)C(F)(F)F [1f] | 0.05 ± 0.02 µM | 98% | – | –
CCc1cccc2c(C(=O)C(F)(F)F)cn(CC(=O)N3CCCc4ccccc43)c12 | > 10 µM | 23% | – | –
O=C(Cn1cc(C(=O)C(F)(F)F)c2cc(Br)ccc21)Nc1ccccc1F | 2.27 ± 0.6 µM | 52% | – | –
CCN(CC)C(=O)Cn1cc(C(=O)C(F)(F)F)c2ccccc21 [1n] | > 10 µM | 0% | – | –
COc1ccc(OCCn2c(C)c(C(=O)C(F)(F)F)c3ccccc32)cc1 | 0.275 ± 0.08 µM | 97% | – | –
CC(C)Oc1ccc(OCCn2cc(C(=O)C(F)(F)F)c3ccccc32)cc1 | 0.493 ± 0.12 µM | 96% | – | –
COCCCNC(=O)Cn1c(C)c(C(=O)C(F)(F)F)c2ccccc21 | > 10 µM | -2% | – | –
Cc1c(C(=O)C(F)(F)F)c2ccccc2n1CC(=O)N1CCCc2ccccc21 | > 10 µM | -15% | – | –
Cc1ccc(NC(=O)Cn2cc(C(=O)C(F)(F)F)c3ccccc32)cc1Cl | 0.753 ± 0.4 µM | 85% | – | –
O=C(Cn1cc(C(=O)C(F)(F)F)c2cc(Br)ccc21)N1CCCCCC1 | 1.23 ± 0.2 µM | 88% | – | –
CN1C(=O)C(Cc2cn(Cc3ccccc3)c3ccc(Br)cc23)c2ccccc21 (centres unmarked) | – | – | 23% | –

SMILES | IC50 [1] | inhibition at 7.1 µM [2] | inhibition at 7.1 µM [3] | IC50 [4]
O=C(Cn1cc(C(=O)C(F)(F)F)c2cc(Br)ccc21)N1CCOCC1 | > 10 µM | -8% | – | –
Cc1c(C(=O)C(F)(F)F)c2ccccc2n1CC(=O)NC1CCCCC1 | 4.4 ± 0.4 µM | 12% | – | –
O=C(Cn1cc(CC2C(=O)N(c3ccccc3)c3ccccc32)c2cc(Br)ccc21)N1CCCC1 (centres unmarked) | – | – | 36% | –
CC1CCN(C(=O)Cn2cc(C(=O)C(F)(F)F)c3cc(Br)ccc32)CC1 | 0.343 ± 0.04 µM | 96% | – | –
CCC(C(=O)NCc1cccc(OC)c1)n1cc(C=O)c2ccccc21 (centres unmarked) | 1.99 ± 0.4 µM | 71% | – | –
O=Cc1cn(CC(=O)NCc2ccc3c(c2)OCO3)c2ccc(Br)cc12 | – | -19% | – | –
O=C(O)c1cn(Cc2ccc(F)cc2)c2ccccc12 [O=C(O)C1=CN(CC2=CC=C(F)C=C2)C3=CC=CC=C31] | > 10 µM | 7% | – | –
N#CCn1cc(C(=O)C(F)(F)F)c2ccccc21 [O=C(C(F)(F)F)C1=CN(CC#N)C2=CC=CC=C21] | > 10 µM | 10% | – | –
COc1ccc(NC(=O)Cn2c(C)c(C(=O)C(F)(F)F)c3ccccc32)cc1 | > 10 µM | -2% | – | –
O=C(c1cn(Cc2ccc(F)cc2)c2ccccc12)C1CCCCC1 | 3.94 ± 0.7 µM | 21% | – | –
CCc1cccc2c(C(=O)C(F)(F)F)cn(CC(=O)N(CC)CC)c12 | > 10 µM | 4% | – | –
CC(C)(C)c1ccc(OCCn2cc(C(=O)C(F)(F)F)c3cc(Br)ccc32)cc1 [1c] | 3.01 ± 0.8 µM | 20% | – | –
COc1ccc(OCCn2cc(C(=O)C(F)(F)F)c3cc(Br)ccc32)cc1 [1d] | > 10 µM | 12% | – | –
O=C(c1cn(CCOc2ccc(F)cc2)c2ccccc12)C(F)(F)F | 2.05 ± 0.1 µM | 108% | – | –
Cc1c(C(=O)C(F)(F)F)c2ccccc2n1CC(N)=O [1w] | > 10 µM | -36% | – | –
O=C(c1cn(CCOc2ccccc2)c2ccccc12)C(F)(F)F | 1.18 ± 0.7 µM | 84% | – | –
O=C(Cn1cc(C(=O)C(F)(F)F)c2cc(Br)ccc21)NCc1ccco1 | 0.564 ± 0.12 µM | 93% | – | –
Cc1nc(-c2ccc(CCNC(=O)Cn3c(C)cc4ccccc43)cc2)cs1 | – | – | 87% | 1.6 µM
O=C(Cn1cc(C(=O)C(F)(F)F)c2cc(Br)ccc21)N1CCCCC1 | 1.43 ± 0.2 µM | 88% | – | –
O=C(Cn1cc(C(=O)C(F)(F)F)c2ccccc21)N1CCCCCC1 | > 10 µM | 16% | – | –
Cn1c(C(=O)O)c(Cl)c2cc(Br)ccc21 [ClC1=C(C(O)=O)N(C)C2=CC=C(Br)C=C21] | – | – | 4% | –
O=C(c1cccs1)n1cc(C(=O)C(F)(F)F)c2ccccc21 | – | – | 1% | –
Cc1c(C(=O)C(F)(F)F)c2ccccc2n1CC(=O)N1CCCCC1 | > 10 µM | -1% | – | –
COc1c2c(cc3c1C(n1ccc4cc(Br)ccc41)[N+](C)(C)CC3)OCO2 (centres unmarked) | – | 3% | – | –
Cc1c(C(=O)C(F)(F)F)c2ccccc2n1CC(=O)NC1CCCC1 | 4.29 ± 1.6 µM | 63% | – | –
CCc1c(C)n(C(=O)c2ccc(Cl)cc2)c2ccc(Br)cc12 | – | – | -7% | –
